Measured values from PMC6114901, “An automated screening method for detecting compounds with goitrogenic activity using transgenic zebrafish embryos” (PLoS ONE, 2018).
Like-named read-outs stand apart in the source and are kept apart here.

Assays:
[1] = system: thyroglobulin (tg:mCherry reporter gene); test: animal or person; conditions: for EC50: Danio rerio, read-out: EC50 (tg:mCherry induction)
Description: In order to avoid interference of test chemicals with early thyroid gland development, zebrafish embryos were cultured in exposure medium until 48 hours post fertilization (hpf). Subsequently, they were exposed to seven known thyroid endocrine disrupters for 3 days (48 to 120 hpf). The non-goitrogenic compound 3,4-dichloroaniline, that is used as reference compound in the zebrafish acute embryo toxicity test was used as negative control. […] No solvents were used. […] Five concentrations and one control were tested per compound and replicate. In the second replicate the range of concentration was adjusted to improve fitting of concentration-response curves. […] Given the lack of appropriate spectral properties stability of exposure concentrations was not analysed for potassium perchlorate. Embryos were kept in the incubator at 26°C and a 14:10 hours light:dark cycle. The exposure was conducted in crystallisation dishes covered with watchmaker glasses with 30 embryos in 30 ml exposure medium (for exposure medium refer to [26]).
Embryos were positioned ventrally toward the microscope objective. Per embryo a bright field image, an autofocus fluorescence image and a Z-stack of 9 images were obtained. The Z-stack was required in case of autofocus failure and manual selection of the focal plane. Fluorescence images were obtained with 400 ms of fluorescent light exposure at maximal light intensity and a gain of 1. […] However, care was taken, that at least 10 images per concentration and replicates were assessed. To avoid a time bias during the analysis the sequence of wells for analysis was arranged in order to obtain a uniform distribution over the entire period of analysis.
The images were analysed using a KNIME workflow (Version 3.3.3., [29]) with the extension “KNIME image processing”. In brief, images were loaded into the workflow and the background was removed automatically using the “rolling ball” procedure of the image J plugin (rolling ball size set to 50 pixels). Subsequently the area containing the thyroid gland was manually selected by drawing a rectangle around the appropriate region using the interactive annotation node. […] If possible the autofocus images were used. In case that the thyroid gland was out of focus due to the presence of autofluorescing pigment cells, an appropriate image from the Z-stack was selected. All subsequent steps were conducted without any user interaction. […] Finally the sum of pixel (reflecting area of the thyroid gland and intensity of fluorescence) was calculated for the labeled area and used as a proxy of fluorescence intensity (see Fig 1 for an overview of the workflow). For each replicate the sum was of pixels was normalized by setting controls to the value of one. For data of individual embryos see S4 Table. The KNIME workflow used for image analysis is provided as supplement file (S1 Workflow).
To characterize the potency of the investigated goitrogenic compounds, we calculated EC50 values of tg:mcherry fluorescence using the pixel sum obtained from image analysis. For each replicate the fluorescence intensity was normalized by dividing the mean fluorescence intensity of each concentration with the mean control fluorescence intensity. Concentration-response curves of tgmcherry fluorescence were fitted to the data using the Hill-slope equation (Eq 1) and used to estimate EC50 values.
The parameter Min was set to 1 and the slope (p) and the maximum fluorescence (Max) were estimated.

[2] = ref chemspider (http://www.chemspider.com); cited from earlier work
[3] = system: thyroid hormone levels (T4); conditions: cited from earlier work; for EC50: read-out: EC50 T4 reduction, reduction of thyroid hormone levels (immunostaining)
[4] = system: zebrafish embryos; test: in vivo
Description: (§1) Fish embryo acute toxicity tests were performed similar as described previously, using 10 or 25 embryos per concentration and replicate exposed in crystallization dishes from 48 to 120 hpf. No exchange of exposure media was performed. Lethality was identified by coagulation, missing heartbeat, a non–detached tail and/or missing of somites. Raw data for mortality and phenotypic assessment are provided as S1 Table. Concentration-response curves for mortality are shown in S2 Fig.

[5] = in vivo; conditions: zebrafish, in vivo, LC50 (48–120 hpf), mortality, embryos exposed 48–120 hpf
Description: as §1

[6] = system: thyroglobulin (tg:mCherry reporter gene); set-up: method as in PMID 25962731; conditions: manual positioning and image analysis; cited from earlier work
[7] = system: zebrafish embryos; conditions: read-out: LC50 (48–120 hpf); mortality; ref Fetter et al. [22]; cited from earlier work
[8] = 72 hpf, 987.65 µmol/L, replicate 2, 10 embryos
[9] = 72 hpf, 1481.48 µmol/L, replicate 2, 10 embryos
[10] = 72 hpf, 2222.22 µmol/L, replicate 2, 10 embryos
[11] = 72 hpf, 3333.33 µmol/L, replicate 2, 10 embryos
[12] = 72 hpf, 5000.00 µmol/L, replicate 2, 10 embryos
[13] = 96 hpf, 987.65 µmol/L, replicate 2, 10 embryos
[14] = 96 hpf, 1481.48 µmol/L, replicate 2, 10 embryos
[15] = 96 hpf, 2222.22 µmol/L, replicate 2, 10 embryos
[16] = 96 hpf, 3333.33 µmol/L, replicate 2, 10 embryos
[17] = 96 hpf, 5000.00 µmol/L, replicate 2, 10 embryos
[18] = 120 hpf, 937.50 µmol/L, replicate 1, 25 embryos
[19] = 120 hpf, 987.65 µmol/L, replicate 2, 10 embryos
[20] = 120 hpf, 1481.48 µmol/L, replicate 2, 10 embryos
[21] = 120 hpf, 1875.00 µmol/L, replicate 1, 25 embryos
[22] = 120 hpf, 2222.22 µmol/L, replicate 2, 10 embryos
[23] = 120 hpf, 3333.33 µmol/L, replicate 2, 10 embryos
[24] = 120 hpf, 3750.00 µmol/L, replicate 1, 25 embryos
[25] = 120 hpf, 5000.00 µmol/L, replicate 2, 10 embryos
[26] = 120 hpf, 7500.00 µmol/L, replicate 1, 25 embryos
[27] = 120 hpf, 15000.00 µmol/L, replicate 1, 25 embryos

SMILES: Oc1cccc(O)c1 [Resorcinol, resorcinol]
- EC50 [1]: 3.4 µM
- BMD 20 ([1]; zebrafish, in vivo): 0.663 µM
- Slope ([1]; zebrafish, in vivo): 0.78
- TDI ([1]; zebrafish, in vivo): 1529
- effect on tg:mCherry fluorescence ([1]; zebrafish, in vivo): weaker induction or repression of fluorescence
- Log D (pH 7.4) [2]: 0.86
- EC50 ([3]; ref Thienpont et al. [13]): 82 µM
- TDI (T4) ([3]; thyroid disruption index based on T4 reduction, ref Thienpont et al. [13]): 62
- No Surviving [4, 8]: 10
- No hatched [4, 8]: 9
- No Surviving [4, 9]: 10
- No hatched [4, 9]: 10
- No Surviving [4, 10]: 10
- No hatched [4, 10]: 9
- No Surviving [4, 11]: 10
- No hatched [4, 11]: 10
- Total Sublethal [4, 11]: 6
- Ydef (yolk deformation) [4, 11]: 6
- No Surviving [4, 12]: 10
- No hatched [4, 12]: 10
- Total Sublethal [4, 12]: 8
- Ydef (yolk deformation) [4, 12]: 8
- No Surviving [4, 13]: 10
- No hatched [4, 13]: 10
- No Surviving [4, 14]: 10
- No hatched [4, 14]: 10
- Total Sublethal [4, 14]: 1
- Ydef (yolk deformation) [4, 14]: 1
- No Surviving [4, 15]: 10
- No hatched [4, 15]: 10
- Total Sublethal [4, 15]: 2
- Ydef (yolk deformation) [4, 15]: 2
- No Surviving [4, 16]: 10
- No hatched [4, 16]: 10
- Total Sublethal [4, 16]: 5
- Ydef (yolk deformation) [4, 16]: 2
- mch (malformation of chorda/scoliosis) [4, 16]: 5
- No Surviving [4, 17]: 10
- No hatched [4, 17]: 10
- Total Sublethal [4, 17]: 10
- Ydef (yolk deformation) [4, 17]: 7
- nobc (no blood circulation) [4, 17]: 2
- nomov (no spontaneous movement) [4, 17]: 10
- No Surviving [4, 18]: 25
- k/f (coagulated) [4, 18]: 0
- No Surviving [4, 19]: 10
- No hatched [4, 19]: 10
- EdY / EdP (heart or yolk sac edema) [4, 20]: 1
- No Surviving [4, 20]: 10
- No hatched [4, 20]: 10
- Total Sublethal [4, 20]: 1
- Ydef (yolk deformation) [4, 20]: 1
- No Surviving [4, 21]: 25
- k/f (coagulated) [4, 21]: 0
- nomov (no spontaneous movement) [4, 21]: 25
- EdY / EdP (heart or yolk sac edema) [4, 22]: 1
- No Surviving [4, 22]: 10
- No hatched [4, 22]: 10
- Total Sublethal [4, 22]: 2
- Ydef (yolk deformation) [4, 22]: 2
- No Surviving [4, 23]: 10
- No hatched [4, 23]: 10
- Total Sublethal [4, 23]: 5
- Ydef (yolk deformation) [4, 23]: 5
- mch (malformation of chorda/scoliosis) [4, 23]: 4
- EdY / EdP (heart or yolk sac edema) [4, 24]: 25
- No Surviving [4, 24]: 25
- Total Sublethal [4, 24]: 25
- k/f (coagulated) [4, 24]: 0
- EdY / EdP (heart or yolk sac edema) [4, 25]: 8
- No Surviving [4, 25]: 7
- No hatched [4, 25]: 10
- Total Sublethal [4, 25]: 7
- Ydef (yolk deformation) [4, 25]: 8
- mch (malformation of chorda/scoliosis) [4, 25]: 3
- nobc (no blood circulation) [4, 25]: 10
- nohb (no heartbeat) [4, 25]: 3
- nomov (no spontaneous movement) [4, 25]: 10
- No Surviving [4, 26]: 0
- k/f (coagulated) [4, 26]: 25
- No Surviving [4, 27]: 0
- k/f (coagulated) [4, 27]: 25
- LC10 ([4]; mortality after 72 h of exposure, S2 Fig, unit not given, in µM): 4701
- Slope ([4]; mortality concentration-response curve, 72 h of exposure): 21.9
- LC50 [5]: 5200 µM

SMILES: Cn1cc[nH]c1=S [Methimazole, methimazole]
- EC50 [6]: 551 µM
- EC50 [1]: 279 µM
- BMD 20 ([1]; zebrafish, in vivo): 186 µM
- Slope ([1]; zebrafish, in vivo): 3.3
- TDI ([1]; zebrafish, in vivo): 103
- Log D (pH 7.4) [2]: -0.11
- EC50 ([3]; ref Thienpont et al. [13]): 290 µM
- TDI (T4) ([3]; zebrafish, in vivo): 75
- LC50 [7]: 28800 µM
